Consider 29 compounds from patent US11618747B2, “LXR modulators with bicyclic core moiety” (OrsoBio, Inc., priority 2018, dated 2023).

pEC50: −log10 of the molar value. Where two headings read alike, the source gives them in different places.

Common to all, as to format: cell-based
Holding throughout (conditions): HEK293 cells

One experiment has as its target T1, full length (FL) LXRα (Homo sapiens, UniProt Q13133).
T1 construct: the full length (FL) proteins of LXRα (amino acids 1-447); NP005684; expressed in transfected cells; host or cells: HEK293
T1 sequence (Q13133 1-447): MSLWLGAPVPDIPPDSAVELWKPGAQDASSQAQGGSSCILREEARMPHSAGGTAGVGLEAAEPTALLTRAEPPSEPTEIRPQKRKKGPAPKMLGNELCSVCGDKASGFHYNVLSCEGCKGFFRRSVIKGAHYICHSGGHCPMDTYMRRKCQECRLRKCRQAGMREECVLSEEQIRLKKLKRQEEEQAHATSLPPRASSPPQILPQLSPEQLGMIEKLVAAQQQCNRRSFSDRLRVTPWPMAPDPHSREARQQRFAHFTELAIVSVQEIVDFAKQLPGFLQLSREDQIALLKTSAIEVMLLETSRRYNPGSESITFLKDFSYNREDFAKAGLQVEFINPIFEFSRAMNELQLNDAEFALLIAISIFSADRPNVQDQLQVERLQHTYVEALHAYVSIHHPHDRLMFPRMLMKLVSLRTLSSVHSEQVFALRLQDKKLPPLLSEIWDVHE
Description: LXR Gal4 reporter transient transfection assay (FL-M2H Gal4α). The procedure, abridged: (§1)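 Mammalian two-hybrid in HEK293: AD-LXR (FL or LBD) + BD-cofactor (SRC1 coactivator or NCoR corepressor domain), pFR-Luc reporter, pRL-CMV normaliser; PEI transfection. Compound added 4 h later (DMSO ≤0.2% final), 16 h incubation at 37 °C. Firefly/Renilla luminescence measured sequentially in lysate.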

For a further experiment, the target named is T2, full length (FL) LXRβ (Homo sapiens, UniProt P55055, DUP175-175).
T2 construct: the full length (FL) proteins of LXRα (amino acids 1-447); NP005684; NP009052; expressed in transfected cells; host or cells: HEK293
T2 sequence (P55055 with tags, fused parts or gaps DUP175-175): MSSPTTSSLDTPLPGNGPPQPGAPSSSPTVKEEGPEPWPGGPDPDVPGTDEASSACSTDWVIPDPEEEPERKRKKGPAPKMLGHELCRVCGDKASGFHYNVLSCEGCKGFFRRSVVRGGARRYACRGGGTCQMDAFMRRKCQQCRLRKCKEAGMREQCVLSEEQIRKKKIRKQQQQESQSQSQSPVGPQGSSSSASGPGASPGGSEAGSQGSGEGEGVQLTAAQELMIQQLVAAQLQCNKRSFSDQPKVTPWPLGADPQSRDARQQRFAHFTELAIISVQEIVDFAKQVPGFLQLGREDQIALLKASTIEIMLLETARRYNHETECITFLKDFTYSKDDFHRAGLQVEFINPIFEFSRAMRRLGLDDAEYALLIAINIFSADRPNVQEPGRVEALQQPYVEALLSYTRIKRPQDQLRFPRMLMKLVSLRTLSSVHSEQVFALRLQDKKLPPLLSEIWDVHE
The experiment is described as follows: LXR Gal4 reporter transient transfection assay (FL-M2H Gal4β). The procedure, abridged: as §1

For experiment [1], the target named is T3, ligand-binding domain (LBD) of LXRβ (Homo sapiens, UniProt P55055, DUP175-175).
T3 construct: LXRβ (amino acids 156-461); expressed in transfected cells; host or cells: HEK293
T3 sequence (P55055 with tags, fused parts or gaps DUP175-175 limits assumed): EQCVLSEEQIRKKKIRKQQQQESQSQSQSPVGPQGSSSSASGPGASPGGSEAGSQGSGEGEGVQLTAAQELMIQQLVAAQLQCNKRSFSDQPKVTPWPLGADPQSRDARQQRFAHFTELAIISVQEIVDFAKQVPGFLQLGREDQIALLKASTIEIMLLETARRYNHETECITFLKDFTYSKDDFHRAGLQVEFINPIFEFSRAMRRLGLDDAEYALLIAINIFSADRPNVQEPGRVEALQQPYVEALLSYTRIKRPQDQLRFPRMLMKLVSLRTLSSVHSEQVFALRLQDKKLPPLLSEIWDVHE
The experiment is described as follows: LXR Gal4 reporter transient transfection assay (LBD-M2H Gal4β). The procedure, abridged: as §1

Where [2] appears, read: full length LXRα, read-out: FL-M2H Gal4α (EC50 range).
[3] abbreviates: full length LXRβ, read-out: FL-M2H Gal4β (EC50 range).
The mark [4] stands for this setting: LXRβ LBD, read-out: LBD-M2H Gal4β (EC50 range).

For `N#Cc1cccc(C#N)c1-c1c(-c2cccc(-c3cc(F)c(C(=O)O)cc3Cl)c2)n(S(=O)(=O)c2ccc(C(F)F)cc2)c2ccc(F)cc12` [11/65], the pEC50 at full length (FL) LXRα (setting [2]) and at full length (FL) LXRβ (setting [3]) was more than 7.00 each time.
For the compound `N#Cc1cccnc1-c1c(-c2cccc(-c3ccc(C(=O)O)cc3Cl)c2)n(S(=O)(=O)c2ccc(C(F)F)cc2)c2ccc(F)cc12` [11/26], the pEC50 at full length (FL) LXRα (setting [2]) and at full length (FL) LXRβ (setting [3]) was more than 7.00 in each case.
Consider `CN(CCS(=O)(=O)O)C(=O)c1ccc(-c2cccc(-c3c(-c4c(C#N)cccc4C#N)c4cc(F)ccc4n3S(=O)(=O)c3ccc(C(F)F)cc3)c2)c(Cl)c1` [10/2], for which the pEC50 on full length (FL) LXRα (setting [2]) and at full length (FL) LXRβ (setting [3]) was more than 7.00 each time.
`N#Cc1cccc(C#N)c1-c1c(-c2cccc(-c3ccc(C(=O)O)cc3Cl)c2)n(S(=O)(=O)c2ccc(C(F)F)cc2)c2ccc(F)cc12` [11/12]: the pEC50 on full length (FL) LXRα (setting [2]) and at full length (FL) LXRβ (setting [3]) was more than 7.00 throughout.
Take `O=C(O)c1ccc(-c2cccc(-c3c(-c4c(Cl)cccc4Cl)c4cc(F)ccc4n3S(=O)(=O)c3ccc(C(F)F)cc3)c2)c(Cl)c1` [11/13]: the pEC50 at full length (FL) LXRα (setting [2]) and on full length (FL) LXRβ (setting [3]) was more than 7.00 throughout.
`N#Cc1cccc(C#N)c1-c1c(-c2cccc(-c3ccc(C(=O)NCC(=O)O)cc3Cl)c2)n(S(=O)(=O)c2ccc(C(F)F)cc2)c2ccc(F)cc12` [21/3]: the pEC50 on full length (FL) LXRα (setting [2]) and on full length (FL) LXRβ (setting [3]) was more than 7.00 each time.
As to `N#Cc1cccc(C#N)c1-c1c(-c2cccc(-c3c(F)cc(CC(=O)O)cc3F)c2)n(S(=O)(=O)c2ccc(C(F)F)cc2)c2ccc(F)cc12` [3/73], the pEC50 at full length (FL) LXRα (setting [2]) and at full length (FL) LXRβ (setting [3]) was more than 7.00 in each case.
With `Cc1ccc(S(=O)(=O)n2c(-c3cccc(-c4ccc(C(=O)O)cc4)c3)c(-c3ccsc3C#N)c3cc(F)ccc32)cc1` [5/3], the pEC50 at full length (FL) LXRβ (setting [3]) was more than 7.00.
In the case of `N#Cc1ccccc1-c1c(-c2cccc(-c3ccc(C(=O)O)cc3Cl)c2)n(S(=O)(=O)c2ccc(C(F)F)cc2)c2ccc(F)cc12` [11/33], at full length (FL) LXRα, the “FL-M2H Gal4α efficacy (value in brackets)” value came to 164%. The pEC50 at full length (FL) LXRα (setting [2]) is more than 7.00; at full length (FL) LXRα (read-out: FL-M2H Gal4α potency), 8.89; at full length (FL) LXRβ (setting [3]) it was more than 7.00; at full length (FL) LXRβ (read-out: FL-M2H Gal4β potency), 8.77. Moreover, the “FL-M2H Gal4β efficacy (value in brackets)” value on full length (FL) LXRβ is recorded as 130%.
Regarding `COc1c(C(=O)O)ccc(-c2cccc(-c3c(-c4ccccc4C#N)c4cc(F)ccc4n3S(=O)(=O)c3ccc(C(F)F)cc3)c2)c1Cl` [11/27], the pEC50 at full length (FL) LXRα (setting [2]) and on full length (FL) LXRβ (setting [3]) was more than 7.00 throughout.
Regarding `O=C(O)c1ccc(-c2cccc(-c3c(-c4ccccc4C4COC4)c4cc(F)ccc4n3S(=O)(=O)c3ccc(C(F)F)cc3)c2)c(Cl)c1` [3/59], the pEC50 at full length (FL) LXRα (setting [2]) and at full length (FL) LXRβ (setting [3]) was more than 7.00 in each case.
In the case of `Cc1ccc(S(=O)(=O)n2c(-c3cccc(N4CC(C(=O)O)C4)c3)c(-c3ccsc3C#N)c3cc(F)ccc32)cc1` [3/32], the results for the pEC50 (at full length (FL) LXRα (setting [2]); in experiment [1] (read-out: LBD-M2H Gal4β potency); at full length (FL) LXRβ (setting [3])) were 6.00 to 7.00, 7.89 and more than 7.00, respectively. Also, the “LBD-M2H Gal4β efficacy (value in brackets)” value in experiment [1] was 81%.
For `Cc1ccc(S(=O)(=O)n2c(-c3cccc(N4CC(C(=O)O)C4)c3)c(-c3ccsc3C#N)c3cc(F)c(Cl)cc32)cc1` [3/43], the pEC50 on full length (FL) LXRα (setting [2]) was 6.00 to 7.00; in experiment [1] (setting [4]) it was 6.00 to 7.00; on full length (FL) LXRβ (setting [3]) it was more than 7.00.
For the compound `N#Cc1nccnc1-c1c(-c2cccc(-c3cc(F)c(C(=O)O)cc3Cl)c2)n(S(=O)(=O)c2ccc(C(F)F)cc2)c2ccc(F)cc12` [11/11], the pEC50 on full length (FL) LXRα (setting [2]) and on full length (FL) LXRβ (setting [3]) was more than 7.00 throughout.
Regarding `Cc1ccc(S(=O)(=O)n2c(-c3cccc(N4CC(C(=O)O)C4)c3)c(-c3ccsc3C#N)c3cc(C)ccc32)cc1` [3/46], the pEC50 (at full length (FL) LXRα (setting [2]); in experiment [1] (setting [4]); on full length (FL) LXRβ (setting [3])) was more than 7.00 in each case.
For `N#Cc1cccc(C#N)c1-c1c(-c2cccc(-c3c(F)cc(C(=O)O)cc3F)c2)n(S(=O)(=O)c2ccc(C(F)F)cc2)c2ccc(F)cc12` [11/53], the pEC50 on full length (FL) LXRα (setting [2]) and at full length (FL) LXRβ (setting [3]) was more than 7.00 in each case.
`N#Cc1cccc(C#N)c1-c1c(-c2cccc(-c3ccc(C(=O)O)cc3Cl)c2)n(S(=O)(=O)C2CCC(F)(F)CC2)c2ccc(F)cc12` [11/63]: the pEC50 at full length (FL) LXRα (setting [2]) and on full length (FL) LXRβ (setting [3]) was more than 7.00 each time.
In the case of `O=C(O)c1ccc(-c2cccc(-c3c(-c4ncccc4C(F)(F)F)c4cc(F)ccc4n3S(=O)(=O)c3ccc(C(F)F)cc3)c2)c(Cl)c1` [11/23], the pEC50 on full length (FL) LXRα (setting [2]) and at full length (FL) LXRβ (setting [3]) was more than 7.00 each time.
In the case of `Cc1ccc(S(=O)(=O)n2c(-c3cccc(-c4ccc(C(=O)O)cc4Cl)c3)c(-c3ccsc3C#N)c3cc(F)ccc32)cc1` [3/48], the pEC50 at full length (FL) LXRα (setting [2]) and at full length (FL) LXRβ (setting [3]) was more than 7.00 in each case.
As to `Cc1ccc(S(=O)(=O)n2c(-c3cccc(N4CC(C(=O)O)C4)c3)c(-c3ccsc3C#N)c3cc(F)c(F)cc32)cc1` [3/42], the pEC50 was 6.00 to 7.00 at full length (FL) LXRα (setting [2]), more than 7.00 in experiment [1] (setting [4]) and more than 7.00 on full length (FL) LXRβ (setting [3]).
In the case of `N#Cc1ccccc1-c1c(-c2cccc(-c3ccc(C(=O)O)cc3Cl)c2)n(S(=O)(=O)c2ccc(C(F)F)cc2)c2cnccc12` [11/49], the pEC50 on full length (FL) LXRα (setting [2]) and on full length (FL) LXRβ (setting [3]) was more than 7.00 throughout.
As for `N#Cc1cccc(C#N)c1-c1c(-c2cccc(-c3ccc(C(=O)NCCS(=O)(=O)O)cc3Cl)c2)n(S(=O)(=O)c2ccc(C(F)F)cc2)c2ccc(F)cc12` [10/1], the pEC50 on full length (FL) LXRα (setting [2]) and at full length (FL) LXRβ (setting [3]) was more than 7.00 each time.
For the compound `N#Cc1cccc(C#N)c1-c1c(-c2cccc(-c3ccc(C(=O)O)cc3Cl)c2)n(S(=O)(=O)c2ccc(C(F)(F)F)nc2)c2ccc(F)cc12` [11/37], the pEC50 on full length (FL) LXRα (setting [2]) and on full length (FL) LXRβ (setting [3]) was more than 7.00 in each case.
For the compound `Cc1ccc(S(=O)(=O)n2c(-c3cccc(-c4ccc(C(=O)O)cc4)c3)c(-c3ccsc3C#N)c3cc(F)ccc32)cc1C` [23/2], the pEC50 on full length (FL) LXRα (setting [2]) and on full length (FL) LXRβ (setting [3]) was more than 7.00 each time.
As for `N#Cc1cccc(C#N)c1-c1c(-c2cccc(-c3ccc(C(=O)O)cc3F)c2)n(S(=O)(=O)c2ccc(C(F)F)cc2)c2ccc(F)cc12` [11/51], the pEC50 on full length (FL) LXRα (setting [2]) and on full length (FL) LXRβ (setting [3]) was more than 7.00 each time.
Consider `Cc1ccc(S(=O)(=O)n2c(-c3cccc(C45CCC(C(=O)O)(CC4)CC5)c3)c(-c3ccsc3C#N)c3cc(F)ccc32)cc1` [3/64], for which the pEC50 on full length (FL) LXRα (setting [2]) and at full length (FL) LXRβ (setting [3]) was more than 7.00 in each case.
For the compound `N#Cc1sccc1-c1c(-c2cccc(-c3ccc(C(=O)O)cc3Cl)c2)n(S(=O)(=O)c2ccc(C(F)(F)F)nc2)c2ccc(F)cc12` [11/16], the pEC50 on full length (FL) LXRα (setting [2]) and on full length (FL) LXRβ (setting [3]) was more than 7.00 each time.
Take `CC(=O)NS(=O)(=O)c1ccc(-c2cccc(-c3c(-c4c(C#N)cccc4C#N)c4cc(F)ccc4n3S(=O)(=O)c3ccc(C(F)F)cc3)c2)c(Cl)c1` [8/8]: the pEC50 at full length (FL) LXRα (setting [2]) and at full length (FL) LXRβ (setting [3]) was more than 7.00 throughout.
Regarding `Cc1ccc(S(=O)(=O)n2c(-c3cccc(N4CC(C(=O)O)C4)c3)c(-c3ccsc3C#N)c3cc(Cl)ccc32)cc1` [3/44], the pEC50 (at full length (FL) LXRα (setting [2]); in experiment [1] (setting [4]); on full length (FL) LXRβ (setting [3])) was more than 7.00 each time.
